Experimental data published in patent publication US5723496A, “Method for prevention and treatment of harmful effects of intracellular acidosis” (priority 1995, dated 1998).
Where “and” joins values, the source holds several entries; their conditions need not be identical. Equal values may be shown once. Entries after “also recorded” stand apart in the source; their conditions may differ.

Columns and labels:
[1] = cited from earlier work
[2] = test system: adult mice exposed to anoxia; experiment: survival of adult mice exposed to anoxia; format: in vivo, Adult Swiss mice; design: mortality, 2.5 minutes of anoxia / protection against 2.5 minutes anoxia: concentration or dose not given beside the values
Protocol: Adult Swiss mice (BK-1 males, 20 g) purchased from Bantin & Kingman, Fremont, Calif. were used. Each batch consisted of 10 mice. Within each batch five mice were selected randomly as experimental animals and the remaining five as controls. Experimental mice received daily intraperitoneal injections of 0.25 ml of GES (50 mg/ml) for 14 days.
At day 14, all mice within the same batch (5 experimental and 5 each of the […]) were placed in a specially designed chamber (26.5×24.5×21.0 cm). Anoxia/hypoxia was produced by infusion of pure nitrogen gas ([…]) into the chamber for 2.5 or 2.75 minutes. Anoxia/hypoxia was reversed immediately after these intervals by removing the chamber and placing the mice in a room air environment.
The results are shown in FIG. 1 and discussed in detail above.

anaerobic glycolysis = experiment: brain lactate after 2.5 min anoxia; format: in vivo, Adult Swiss mice
Protocol: (§1) Adult Swiss mice (BK-1 male 20 g) purchased from Bantin & Kingman, Fremont, Calif., were used. Each batch consisted of 15 mice. Within each batch, five mice were selected randomly to be in the GES, taurine, or control group. A taurine group was included to serve as additional control.
Brain lactate levels were determined for mice exposed to 2.5 minutes of anoxia as follows. Animals were exposed to 2.5 minutes of anoxia under pentobarbital anesthesia. Immediately after the exposure, animals were immersed into a liquid nitrogen. The frozen brains were removed by chiseling and extracted as described above. Lactate concentration was determined using the lactate dehydrogenase reaction.

[3] = in vivo; cited from earlier work
[4] = observation of behavior and respiratory pattern; format: in vivo, Adult Swiss mice; conditions: mouse, in vivo, ip
From the text: as §1

[5] = design: species or system Adult Swiss mice; conditions: mouse, in vivo
Protocol: as §1
Arterial blood gas sample was collected by puncture of the lower portion of the descending aorta under pentobarbital anesthesia. Analysis was performed on a Corning 168 Blood Gas Analyzer.

[6] = test system: brains of newborn rat pups; experiment: brain intracellular pH and lactate of rat pups before and after 7.5 min anoxia (in vivo NMR); design: species or system Sprague-Dawley rats
Protocol: A Nicolet NMR System NT-200 (4.7T) was used for NMR experiments. Mice, rats or pups (Sprague-Dawley) were lightly anesthetized with ketamine hydrochloride, 50 mg/kg I.P., and placed in the NMR probe which contained an oval surface coil (one turn, 8×12 mm diameter) tunable to the resonance frequency of the proton and ^31 P. To eliminate signal contamination, scalp and temporal muscle were retracted. Field homogeneity was maximized by skimming on water proton signals. To produce anoxia, 100% nitrogen gas was rapidly infused (14 l/min) into the probe chamber. Anoxia could be reversed by infusion of air. Calibration studies using an oxygen meter (OM-1 Biological oxygen Meter, Micro-electrodes, Inc.) confirmed that this technique produced complete O2 depletion in the chamber or its reversal within 1 minute. ^1 H spectra were obtained at 199.97 MHz=z using a 1331-.tau.-2662 spin echo sequence with a .tau. delay of 68 ms (spectral width: 2 KHz, memory block: 4K, recycle time 2.7 seconds). The interpulse delay of the Hore sequence was adjusted so that the lactate resonance experienced least attenuation. ^31 P spectra were obtained at 80.99 MHz using a one pulse sequence (spectral width: 6 KHz, memory block: 4K, recycle time 2.7 seconds). The free induction decay (FID) like signals from remaining water proton signals were eliminated by applying sine function […]. The broad resonance with short T2 on ^31 P NMR spectra was removed using the convolution difference technique. Line broadening of 5 Hz and 30 Hz were applied as noise filter for proton and ^31 P spectra, respectively.
These animals were designated to be the experimental group. Physiological saline was administered to the control group of rats. Each group consisted of 10 animals.
On the last day of the administration, i.e. at day 10, the animals were each fixed in a special chamber set within a 4.7 T nuclear magnetic resonance apparatus. […]
The pH level and the lactate concentration in the cerebral cells before and after anoxia were measured by nuclear magnetic resonance spectroscopy using the procedure described above.

Row | Compound | pKa value [1] | protection against anoxia / survival (in words) [2] | mortality, 2.5 minutes of anoxia ([2]; 14 days i.p. pretreatment) | protection against 2.5 minutes anoxia ([2]; FIG. 1) [%] | Lactate (anaerobic glycolysis; Table 4, n = 5, post 2.5 min anoxia) [mM] | lactate levels post 2.5 min anoxia (in words) (anaerobic glycolysis; among three groups) | blood-brain barrier crossing (in words) [3] | observable adverse effects in behavior or respiratory pattern [4] | arterial pCO2 [5] [mmHg] | arterial pH [5] | arterial pO2 [5] [mmHg] | effect on pH depression in anoxia (in words) [6] | brain pH after anoxia ([6]; taurine 16 mmol/kg/day i.p., after 7.5 min anoxia) | brain pH before anoxia ([6]; taurine 16 mmol/kg/day i.p., day 10)
1 | Nc1ncnc2c1ncn2[C@@H]1O[C@H](COP(=O)(O)OP(=O)(O)OP(=O)(O)O)[C@@H](O)[C@H]1O [adenosine triphosphate (ATP), adenosine triphosphate] | 6.95 | – | – | – | – | – | – | – | – | – | – | – | – | –
2 | O=S(=O)(O)CCN1CCOCC1 [MES, 2-(N-morpholino) ethane sulfonic acid, reference compound] | 6.1 | – | – | – | – | – | – | – | – | – | – | – | – | –
3 | NCCS(=O)(=O)O [taurine, 2-amineethanesulfonic acid, reference compound] | – | no difference between taurine pretreated animals (column B) and saline pretreated animal | 40% and 60% | 40 | 0.48 ± 0.08 | essentially identical among the three groups | does not cross the blood-brain barrier in adult mice; also recorded: does not cross the blood brain barrier freely in the adult mouse; also recorded: does cross the blood-brain barrier in newborns but it has no such effect in the adults | did not show any observable adverse effects | 41.26 ± 5.39 | 7.26 ± 0.04 | 97.7 ± 12.9 | pH depression is considerably prevented | 7.0 | 7.3
